This is an account of results in ChEMBL document CHEMBL3779872 (ACS Med Chem Lett, 2016).

A word on the EC50: it is the concentration needed to bring the measured effect to its halfway point. As a reminder, the Emax is the size of the effect at its maximum, as opposed to the concentration needed.

In test [1] the target is T1, Trace amine-associated receptor 1 (Homo sapiens, UniProt Q96RJ0).
T1 sequence (Q96RJ0 whole entry): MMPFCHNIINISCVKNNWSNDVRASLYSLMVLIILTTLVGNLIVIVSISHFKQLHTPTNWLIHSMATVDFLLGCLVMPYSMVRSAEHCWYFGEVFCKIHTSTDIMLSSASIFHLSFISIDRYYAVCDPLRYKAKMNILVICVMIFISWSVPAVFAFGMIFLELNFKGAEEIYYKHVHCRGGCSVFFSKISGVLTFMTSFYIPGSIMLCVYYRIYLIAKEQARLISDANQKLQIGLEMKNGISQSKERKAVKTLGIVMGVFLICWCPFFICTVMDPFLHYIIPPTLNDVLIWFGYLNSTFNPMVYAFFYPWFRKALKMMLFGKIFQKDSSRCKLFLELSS
Description: Agonist activity at human TAAR1 expressed in recombinant HEK293 cells assessed as cAMP accumulation after 30 mins by luminometer. Type of test: functional, cell-based.

In test [2] the target is T2, Trace amine-associated receptor 1 (Homo sapiens) (UniProt Q96RJ0).
T2 sequence (whole entry): T1 sequence (Q96RJ0 whole entry)
Description: Agonist activity at human TAAR1 expressed in recombinant HEK293 cells assessed as cAMP accumulation after 30 mins by luminometer relative to phenethylamine. Type of test: functional, cell-based. (In general: Cyclic AMP is a second messenger, typically raised through Gs and lowered through Gi signalling.)

The test system of the next test is HEK293. Description: Selectivity ratio of EC50 for human adrenergic alpha 2A receptor expressed in CHL cells to EC50 for human TAAR1 expressed in recombinant HEK293 cells. Type of test: cell-based.
Test [3] addresses Trace amine-associated receptor 1 (Rattus norvegicus, UniProt Q923Y9). Description: Agonist activity at rat TAAR1 expressed in recombinant HEK293 cells assessed as cAMP accumulation after 30 mins by luminometer. Type of test: functional, cell-based.
In test [4] the target is Trace amine-associated receptor 1 (Mus musculus, UniProt Q923Y8). Description: Agonist activity at mouse TAAR1 expressed in recombinant HEK293 cells assessed as cAMP accumulation after 30 mins by luminometer. Type of test: functional, cell-based.
Trace amine-associated receptor 1 (Mus musculus, UniProt Q923Y8), sequence (Q923Y8 whole entry): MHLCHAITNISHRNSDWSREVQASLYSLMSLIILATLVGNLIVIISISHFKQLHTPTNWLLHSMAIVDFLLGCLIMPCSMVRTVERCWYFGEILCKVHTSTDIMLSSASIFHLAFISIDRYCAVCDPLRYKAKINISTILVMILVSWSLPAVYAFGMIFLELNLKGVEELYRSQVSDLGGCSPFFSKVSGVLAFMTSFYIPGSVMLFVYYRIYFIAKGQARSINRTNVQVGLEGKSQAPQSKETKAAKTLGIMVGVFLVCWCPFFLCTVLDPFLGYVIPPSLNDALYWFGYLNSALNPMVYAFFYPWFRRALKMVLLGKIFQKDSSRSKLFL

Trace amine-associated receptor 1 (Rattus norvegicus, UniProt Q923Y9), sequence (Q923Y9 whole entry): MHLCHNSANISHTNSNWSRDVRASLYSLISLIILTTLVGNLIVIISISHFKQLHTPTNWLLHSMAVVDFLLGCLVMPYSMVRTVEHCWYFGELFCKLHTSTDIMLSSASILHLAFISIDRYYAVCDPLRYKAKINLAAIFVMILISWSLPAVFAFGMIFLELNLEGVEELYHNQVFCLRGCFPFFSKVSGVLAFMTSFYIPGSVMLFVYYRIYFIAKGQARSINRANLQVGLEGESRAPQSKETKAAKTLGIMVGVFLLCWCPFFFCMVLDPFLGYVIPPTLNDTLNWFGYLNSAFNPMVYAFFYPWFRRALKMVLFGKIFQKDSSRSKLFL

As to `CCN(C[C@H]1COC(N)=N1)c1ccccc1`, the EC50 in test [1] turned out to be 59 nM; in test [3], 14 nM; in test [4] it was 3 nM. In addition, the maximum response (Emax) in test [2] worked out at 87%. Moreover, the Ratio EC50 in the test on HEK293 worked out at 36.
